For one substance, Kd results are on record in US10947317B2, “NaPi2b-targeted antibody-drug conjugates and methods of use thereof” (Mersana Therapeutics, Inc., priority 2016, dated 2021).

In experiment [1] the test system is OVCAR3 cells. Put plainly: Cell surface binding by flow cytometry, OVCAR3. Particulars: on ice 3 hours. How it is done:
(§1) The cell surface binding of the Example 1C, XMT 1535-(EG2-MI-(10 kDa PHF-BA-(AF-HPA-Ala))) and anti-NaPi2B antibody XMT 1535, to antigen expressing cells was evaluated by flow cytometry. TOV-21G or OVCAR3 cells were grown overnight to approximately 90% confluent cultures in media, then were released from the plate surface by treatment with Trypsin-EDTA (Gibco-Thermo Fisher Scientific, USA). The detached cells were washed once with ice cold media containing 6% goat serum and resuspended in the same media. 50,000 cells were aliquoted per well of a V-bottom, 96-well plate and incubated with a range of test articles concentrations (0.23-500 nM) in 100 μl Media (1:1 mixture MCDB105 (1.5 g/L sodium bicarbonate) and Medium 199 (2.2 g/L sodium bicarbonate plus 15% FBS)) with 6% goat serum on ice for 3 hours. […] The amount of fluorescence bound per cell was determined by running 5000 cells for each treatment on a MACSQuant flow cytometer (Miltenyi Biotec, Bergisch Gladbach, Germany). The median fluorescence value for each treatment was graphed, and the binding constant, KD was calculated for each test article with GraphPad Prism software by non-linear regression using the one site specific binding model.

Experiment [2] relates to TOV-21G cells. Nature of the experiment: Cell surface binding by flow cytometry, TOV-21G. The note with it: on ice 3 hours. Also on record: species or system human. On the procedure:
as §1
Background: Flow cytometry measures light scatter and fluorescence of single cells or particles in a stream.

As usually defined, the Kd is the concentration at which binding is half-saturated. The low end stands for a tighter complex, the high end for a looser complex. On to “XMT-1535-(EG2-MI-(10 kDa PHF-BA-(AF-HPA-Ala))) [Example 1C]”, for which the Kd came out at 3.84 nM in experiment [1] and 3.97 nM in experiment [2].
